# Source: patent publication US10266520B2, “Bisamidinium-based inhibitors for the treatment of myotonic dystrophy” (The Board of Trustees of the University of Illinois, priority 2014, dated 2019)
# Target: MBNL1-(CUG)16 complex
# Test: EMSA inhibition of the MBNL1-(CUG)16 complex
# Type: biochemical
# Conditions: EMSA; KI=IC50×KD/[protein]total; read-out: KI, apparent inhibition constant, MBNL1-(CUG)16 complex
# Procedure: FIG. 1A-B. Determination of inhibition constants, KI, by EMSA. (a) Representative gels showing the release of (CUG)16 at different ligand concentrations. Top band is the MBNL1-(CUG)16 complex, the bottom band is the free (CUG)16. (b) IC50 values were obtained by plotting the RNA fraction bound versus ligand concentrations. The apparent inhibition constant (KI) was calculated using the equation: KI=IC50×KD/[protein]total, where KD is the dissociation constant of the MBNL1-RNA complex and [protein] is at least 7-fold greater than the KD. Error bars represent standard deviation of three independent experiments.
# An electrophoretic mobility shift assay (EMSA) was employed to determine the in vitro inhibition of MBNL1-rCUG^exp complex by monomer 1a and dimers 2a-b (FIG. 1). This study used (CUG)16, which can form a hairpin structure containing a maximum of 8 U-U mismatches. […] Likely, a 1:1 complex was formed. In this study, a truncated MBNL1 (1-272 amino acids) containing four zinc finger motifs of MBNL1 and a hexahistidine tag (C-terminus) was employed. This MBNL1 construct and the full-length MBNL1 have the similar affinities to rCUG repeats.
# To determine the inhibition constant of bivalent ligands 2a and 2b, the MBNL1-(CUG)16 mixture, in which ca. 50% of the RNA is free, was incubated with various concentrations of ligand (FIG. 1a). The dimer concentrations were not raised to higher than 10 μM due to the aggregation on the gel at high concentrations. As the concentration of ligand increased, more RNA was released from the complex with MBNL protein. By fitting the plot of bound RNA fractions versus ligand concentrations with an appropriate equation, the IC50 value was determined (FIG. 1b).
# (CUG)16 RNA was labeled with [γ-^32P]-ATP using T4 poly-nucleotide kinase (New England Biolabs). Labeled RNA was purified by phenol extraction and ethanol precipitation. Labeled RNA was heated at 95° C. for 5 min, then placed on ice for 10 min and diluted in protein binding buffer (175 mM NaCl, 5 mM MgCl2, 20 mM Tris-HCl (pH 8), 1.25 mM 2-mercapto-ethanol (BME), 12.5% glycerol, 2 mg/ml bovine serum albumin (BSA), 0.1 mg/ml heparin, 0.05% or 0.1% Triton X). For MBNL1-(CUG)16 binding study, MBNL1 was serially diluted by a factor of 3 in protein binding buffer. To each solution was added labeled RNA, so that the final concentration of RNA was 0.2 nM. The resulting mixtures were incubated at room temperature for 10 min and loaded onto a 6% polyacrylamide gel (80:1) at 4° C. The gel was run for 2 h at 180 V in Tris-Borate 0.5× buffer (pH 8.2-8.3). Gels were dried at 80° C. under high vacuum for 2 h, developed overnight in phosphor exposure cassette, and visualized on a Molecular Dynamics Storm PhosphorImager. The KD (1:1 stoichiometry assumption) was obtained by fitting the normalized fraction RNA bound versus the concentration of protein using the equation: Fraction RNA bound=Bmax×[MBNL1]total^h/(KD^h+MBNL1]total^h) where Bmax is maximum fraction RNA bound, h is a Hill slope. Protein concentration in reaction mixture was larger than 10-fold excess over RNA concentration. Data is illustrated in FIGS. 6 and 7.
compound,measurement,value
N=C(NCCCCNc1nc(N)nc(N)n1)c1ccc(C(=N)NCCCCNc2nc(N)nc(NCCCn3cc(CCNc4nc(N)nc(NCCCCNC(=N)c5ccc(C(=N)NCCCCNc6nc(N)nc(N)n6)cc5)n4)nn3)n2)cc1 [Compound 2b],Ki,36 ± 12 nM
